Data on five molecules can be found in patent US20160130257A1, “Macrocyclic proteasome inhibitors” (BROWN UNIVERSITY, priority 2013, published 2016).

Where two headings read alike, the source gives them in different places.

The target of series [1] is Mycobacterium tuberculosis 20S peptidase (mtb 20S) (Mycobacterium tuberculosis, UniProt P9WHT9).
Series [2] relates to non-heme chloroperoxidase SCO0456 gene transcription. Description: Peroxidase gene (SCO0456) transcription assay of proteasome inhibition in S. coelicolor. It counts as cell-based, Streptomyces coelicolor. As to conditions: for transcription of the proteasome-dependent peroxidase gene: S. coelicolor wild-type, RT-PCR / reporter.
The test system of series [3] is 60 different human tumor cell lines. It counts as cell-based. The text has this:
The In Vitro Cell Line Screening Project (IVCLSP) is a dedicated service providing direct support to the DTP anticancer drug discovery program. The screen utilizes 60 different human tumor cell lines, representing leukemia, melanoma and cancers of the lung, colon, brain, ovary, breast, prostate, and kidney. IVCLSP is unique because the complexity of a 60 cell line dose response produced by a given compound results in a biological response pattern, which can be utilized in pattern recognition algorithms. Using the pattern recognition algorithms, it is possible to assign a putative mechanism of action to a test compound, or to determine that the response pattern is unique and not similar to that of any of the standard prototype compounds included in the NCI database. The methodology of the in vitro cancer screen is available from the NIH.

A further series has as its target mycobacterial proteasome (Mycobacterium tuberculosis, UniProt P9WHT9). As to conditions: cited from earlier work.

Mycobacterium tuberculosis 20S peptidase (mtb 20S), sequence (P9WHT9 58-291): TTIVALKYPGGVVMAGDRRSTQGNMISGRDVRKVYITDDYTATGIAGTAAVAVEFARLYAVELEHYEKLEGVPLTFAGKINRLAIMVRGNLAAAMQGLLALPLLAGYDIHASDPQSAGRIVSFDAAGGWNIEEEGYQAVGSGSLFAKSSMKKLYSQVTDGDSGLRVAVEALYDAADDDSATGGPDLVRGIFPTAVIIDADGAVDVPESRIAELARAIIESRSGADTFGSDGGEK
Mycobacterium tuberculosis 20S peptidase (mtb 20S), sequence (P9WHU1 whole entry partner): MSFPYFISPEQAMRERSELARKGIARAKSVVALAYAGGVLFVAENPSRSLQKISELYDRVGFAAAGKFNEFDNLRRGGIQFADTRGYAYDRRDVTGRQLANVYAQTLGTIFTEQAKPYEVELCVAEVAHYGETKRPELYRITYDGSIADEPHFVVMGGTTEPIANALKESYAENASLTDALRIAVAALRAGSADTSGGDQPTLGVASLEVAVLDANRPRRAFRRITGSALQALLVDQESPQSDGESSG
mycobacterial proteasome, sequence (P9WHT9 58-291): as the sequence (P9WHT9 58-291) above
mycobacterial proteasome, sequence (P9WHU1 whole entry partner): as the sequence (P9WHU1 whole entry partner) above

Turning to `COC(=O)C(NC(=O)N1CCCC1C(=O)NC1CCCCNC(=O)C=CC(Cc2c[nH]c3ccccc23)NC1=O)C(C)C` (stereo not drawn) [Compound O], in series [1], inhibition was half-maximal at 2.67 µM (IC50); the “selective inhibition of M. tuberculosis proteasome compared to human proteasome (in words, from ratio of IC50 values)” value is given as “selectively inhibits”; the “selectivity for the mycobacterial proteasome compared to the human enzyme” value was 13.4 fold; the “selectivity of M. tuberculosis proteasome inhibition compared to Syringolin B” value was “more than 1,900 times”.

For the molecule `COC(=O)C(NC(=O)NCC(=O)NC1CCCCNC(=O)C=CC(Cc2c[nH]c3ccccc23)NC1=O)C(C)C` (stereo not drawn) [Compound P], the “transcription of the proteasome-dependent peroxidase gene” value in series [2] is reported as “induced transcription of the peroxidase reporter gene”. In addition, in series [3], the “toxicity to human cells” value is reported as “not toxic to human cells”. The “killing of cancer cells” value in series [3] (60 cancer cell lines) is “does not kill cancer cells”. For the same molecule, the “inhibition of cancer cell proteasomes” value in series [3] (inferred from 60 cell line screen) is “does not inhibit cancer cell proteasomes”. In series [1], inhibition was half-maximal at 0.000114 µM (IC50); the “selective inhibition of M. tuberculosis proteasome compared to human proteasome (in words, from ratio of IC50 values)” value is “selectively inhibits”; the “selectivity for M. tuberculosis proteasome than human proteasome” value is on record as 46 times; the “selectivity for the mycobacterial proteasome compared to the human enzyme” value amounted to 45.6 fold. For the same molecule, in series [1], the “selectivity of M. tuberculosis proteasome inhibition compared to Syringolin B” value is “more than 6,500 times”.

On to `CCCCCCCCC[C@@H](O)CC(=O)N[C@@H](CC(N)=O)C(=O)N[C@@H](CCC(N)=O)C(=O)N[C@H](C=O)CC(C)C` [Fellutamide B], for which the “inhibition of proteasomes (in words)” value on mycobacterial proteasome is recorded as “inhibit the mycobacterial proteasomes”.

For `CC(C)C1/C=C\C(=O)NCCCCC(NC(=O)C(NC(=O)NC(C(=O)O)C(C)C)C(C)C)C(=O)N1` (stereo not drawn) [Syringolin B], the “SCO0456 expression (gel electrophoresis of RNA samples)” value in series [2] (wild-type S. coelicolor, 150 μg/ml, 5 hours, 30° C.) was “up regulated”.

On to `CC(C)C[C@H](NC(=O)[C@H](Cc1ccccc1)NC(=O)c1cnccn1)B(O)O` [bortezomib, Bortezomib], for which, in series [2], the “transcription of the proteasome-dependent peroxidase gene” value was “significantly up-regulated”. Further, the “inhibition of proteasomes (in words)” value at mycobacterial proteasome was “inhibit the mycobacterial proteasomes”; at mycobacterial proteasome (listed as Bortezomib), “inhibits both bacterial and human proteasomes”.
